Broadly, the Kd is the free concentration of one partner at which half of the binding sites on the other are occupied at equilibrium, for simple one-to-one binding. What is called half-life is the time in which the quantity being followed falls by half. In general, CL/F refers to the apparent clearance, not corrected for the fraction that reaches the circulation.

The source of these data is patent publication US20230031280A1, “GLP-2 FUSION POLYPEPTIDES AND USES FOR TREATING AND PREVENTING GASTROINTESTINAL CONDITIONS” (SHIRE-NPS PHARMACEUTICALS, INC., priority 2017, published 2023).

Like-named read-outs stand apart in the source and are kept apart here.

For data set [1], the target named is monomer/dimer self-association. The data set can be described thus: Microscale thermophoresis (MST) monomer/dimer equilibrium. In kind it is physicochemical. On the procedure: (§1) Microscale thermophoresis (MST) and nano differential scanning fluorimetry (NanoDSF) were performed to characterize the dimer-monomer transition. MST was used to determine the monomer/dimer equilibrium dissociation constant Kd. MST is based on thermodriven diffusion of molecules while NanoDSF is based on Trp fluorescence and is commonly used for thermostability Tm.
On the technique in general: MST reads how a fluorescent partner responds to local heating, with and without ligand.

Data set [2] can be described thus: Cynomolgus monkey pharmacokinetic study. In kind it is in vivo, cynomolgus monkeys. Conditions: subcutaneous, 12.5 nmol/kg. On the procedure:
Pharmacokinetics studies of teduglutide, GLP-2 Peptibody B and GLP-2 Peptibody K were formed in cynomolgus monkeys with citrulline assayed as a biomarker of GLP-2 concentration. In the study, 12.5 nmol/kg teduglutide was administered subcutaneously to a group of 6 male cynomolgus monkeys at day 1. Then for one set of 2 monkeys, 25 nmol/kg GLP-2 Peptibody B was administered intravenously at day 7, day 21, day 28, day 35, and day 42. For another set of 3 monkeys, 25 nmol/kg GLP-2 Peptibody B was administered subcutaneously at day 7, day 21, day 28, day 35, and day 42. For another set of monkeys, 5 nmol/kg GLP-2 Peptibody K was administered intravenously (2 monkeys) and subcutaneously (3 monkeys) at day 7, day 21, day 28, day 35, and day 42. For another set of monkeys, 25 nmol/kg GLP-2 Peptibody K was administered subcutaneously (3 monkeys) and intravenously (2 monkeys) at day 7, day 21, day 28, day 35, and day 42.

The conditions of data set [3]: cited from earlier work.
In data set [4] the target is GLP-2-Fc self-association. The data set can be described thus: NanoDSF at room temperature, monomer/dimer self-association. In kind it is physicochemical. How it is done:
as §1
In the NanoDSF assay, room temperature is used and one tryptophan in GLP-2 is targeted that potentially undergoes conformational changes during GLP-2-Fc self-association. Only the tryptophan fluorescence from the protein contributes to the signal. If tryptophan is buried or stable, the peak is at 330 nm and if the tryptophan is exposed or flexible, the peak is at 350 nm.
(In DSF a fluorescence change marks the thermal transition of the protein.)

Data set [5] can be described thus: Rat pharmacokinetic comparability with/without C-terminal lysine. In kind it is in vivo, Sprague-Dawley rats. Conditions: 1 mg/kg, intravenous and subcutaneous. On the procedure: 1 mg/kg of total GLP-2 peptibody K protein was administered subcutaneously to one group of six male Sprague-Dawley rats. 1 mg/kg of total GLP-2 peptibody K274 protein was administered intravenously to another group of six male Sprague-Dawley rats. 1 mg/kg of total GLP-2 peptibody B protein was administered subcutaneously to a third group of five male Sprague-Dawley rats. 1 mg/kg of total GLP-2 peptibody B264 protein was administered subcutaneously to a fourth group of five male Sprague-Dawley rats.
For all of the above groups, plasma samples were taken pre-dose, and at the following time points post-dose: 5 minutes (day 1), 10 minutes (day 1), 20 minutes (day 1), 30 minutes (day 1), 1 hour (day 1), 2 hours (day 1), 6 hours (day 1), 24 hours (day 2), 48 hours (day 3), 72 hours (day 4), 120 hours (day 6), 168 hours (day 8), 240 hours (day 11), and 336 hours (day 15).
Tables showing the pharmacokinetic data comparing intravenously administered GLP-2 peptibody K and GLP-2 peptibody K274 are in FIG. 10B. Tables showing the pharmacokinetic data comparing subcutaneously administered GLP-2 peptibody K and GL-2 peptibody K274 are in FIG. 10C.

A short description of data set [6]: Mouse pharmacokinetics of GLP-2 peptibody K274. In kind it is in vivo. Conditions: CD1 mice, Q3D over 14 days. How it is done:
A pharmacokinetics analysis was performed in CD1 mice. […] Mice were divided into groups, with one group administered 0.45 mg/kg every three days (Q3D), another administered 1.5 mg/kg Q3D, another administered 4.5 mg/kg Q3D, and another administered 15 mg/kg Q3D over a 14 day period. After dosing was discontinued, concentrations were measured 3, 9, 14, and 21 days later.

The test system of data set [7] is CD-1 mice. The data set can be described thus: Pharmacodynamic plateau study (small intestine weight). In kind it is in vivo. Conditions: female CD-1 mice. How it is done: Various doses of GLP-2 peptibody K274 were analyzed in female CD-1 mice to assess the pharmacodynamic plateau, with the primary endpoint a measurement of the small intestinal weight relative to the total body weight and a histology study of the length of villi. Eight groups of six females each were formed. In two groups, only the vehicle was administered Q3D for as a negative control. In four groups, the following doses were administered Q3D over 14 days: 0.45 mg/kg, 1.5 mg/kg, 4.5 mg/kg and 15 mg/kg. In one additional group, 4.5 mg/kg was administered Q3D for 14 days with the study ending four days later at day 18. In another additional group, 4.5 mg/kg was administered Q3D for 14 days with the study ending seven days later at day 21.
For the primary endpoint, the small intestine weight in grams is shown in FIG. 12A, the small intestine weight normalized to body weight is shown in FIG. 12B, and the colon weight normalized to body weight is shown in FIG. 12C. A dose of 4.5 mg/kg had maximum effect.
FIG. 13B is a graph depicting the percentage change in small intestine weight for both vehicle and GLP-2 peptibody K274.

The test system of data set [8] is CD-1 mice. The data set can be described thus: Histology study of villi length, washout period. In kind it is in vivo, female CD-1 mice. Conditions: 4.5 mg/kg Q3D over 14 days, days 15, 18, 21. On the procedure: Various doses of GLP-2 peptibody B264 were analyzed to assess the pharmacodynamic plateau, with the primary endpoint a measurement of the small intestinal weight relative to the total body weight and a histology study of the length of villi. 11 groups of six female CD-1 mice each were formed.
For histology, four micron paraffin sections were prepared for H&E and Ki67 IHC staining. After whole slide scanning, an imagescope was used to measure villi length and crypt depth, and to analyze Ki67. The antibody against Ki67 is a rabbit antibody sold by Adcam®, catalog number ab 616667. The antibody was used at a working concentration of 1:100 and was detected using a Leica® Refine Kit.
The first day after the washout period ends is day 15, the second day is day 16, etc. Day 2 of the washout period corresponds with day 15. Day 5 of the washout period corresponds with day 18. Day 8 of the washout period corresponds with day 21. D15, D18, and D21 correspond to days 15, 18 and 21 on which the villi length was measured.

A further data set relates to mice. Briefly: Fat (triglyceride) tolerance test with olive oil bolus. In kind it is in vivo. The settings on record: female mice, 4.5 mg/kg every 3 days for 13 days, olive oil bolus 10 mL/kg, vs vehicle. On the procedure: A fat tolerance assay was performed in mice to assess the ability of GLP-2 peptibody K274 to promote absorption of dietary fats. Dietary fat is hydrolyzed into free fatty acids and glycerides, which are transported through the intestinal villi and absorbed by enterocytes. The enterocytes synthesize the triglycerides, which then enter the bloodstream. Such postprandial triglycerides peak in the bloodstream at about 3 hours after ingestion of a fat-rich meal.
It is hypothesized that GLP-2 peptibody K274, by enhancing length of the intestinal villi, would improve the absorption of fatty acids in a mouse model of short bowel syndrome. Assaying for an increase in peak postprandial triglycerides allows for detection of such increased absorption.
Female mice were divided into two groups of […] mice each. Both groups were treated every 3 days for a total of 13 days either with 4.5 mg/kg K274 peptibody (treated group) or vehicle (control group). On day 14 after start of treatment, mice in both groups were fasted for 6 hours followed by administration of an olive oil bolus of 10 mL/kg. Mice in the treated and control groups were divided into 6 subgroups of 6 animals each. […] Plasma triglyceride concentrations were measured on a Cobas C311 instrument (Roche) using the TRIGB assay kit.

With `CC[C@H](C)[C@H](NC(=O)[C@H](Cc1ccccc1)NC(=O)[C@H](CC(=O)O)NC(=O)[C@H](CCCNC(=N)N)NC(=O)[C@H](C)NC(=O)[C@H](C)NC(=O)[C@H](CC(C)C)NC(=O)[C@H](CC(N)=O)NC(=O)[C@H](CC(=O)O)NC(=O)[C@H](CC(C)C)NC(=O)[C@@H](NC(=O)[C@@H](NC(=O)[C@H](CC(N)=O)NC(=O)[C@H](CCSC)NC(=O)[C@H](CCC(=O)O)NC(=O)[C@H](CC(=O)O)NC(=O)[C@H](CO)NC(=O)[C@H](Cc1ccccc1)NC(=O)[C@H](CO)NC(=O)CNC(=O)[C@H](CC(=O)O)NC(=O)CNC(=O)[C@@H](N)Cc1c[nH]cn1)[C@@H](C)O)[C@@H](C)CC)C(=O)N[C@@H](CC(N)=O)C(=O)N[C@@H](Cc1c[nH]c2ccccc12)C(=O)N[C@@H](CC(C)C)C(=O)N[C@H](C(=O)N[C@@H](CCC(N)=O)C(=O)N[C@H](C(=O)N[C@@H](CCCCN)C(=O)N[C@H](C(=O)N[C@H](C(=O)N[C@@H](CC(=O)O)C(=O)O)[C@@H](C)O)[C@@H](C)CC)[C@@H](C)O)[C@@H](C)CC` [teduglutide], the dissociation constant (Kd) was determined as 24 ± 3 µM in data set [1] and 77 ± 14 µM in data set [4]. In addition, the Vc in data set [2] came to 0.218 L/kg. The “association constant (ka)” value in data set [2] is 9.67 day⁻¹. Moreover, the half-life in [3] (SBS patients) was roughly 1.3 h; in data set [3] (healthy patients), “approximately 2 hours”.

For “GLP-2 peptibody K274: GLP-2[A2G]-GGGGSGGGGSGGGGS linker-IgG1 Fc (LALA) without C-terminal lysine; SEQ ID NO: 7”, the “pharmacokinetic comparability of K and K274” value in data set [5] is reported as “identical from a pharmacokinetic point of view”. In data set [6], the CL/F came to 3.39 mL/h/kg and the Vc came out at 0.213 L/kg. Moreover, the “persistence of increased small intestine weight normalized to body weight after dosing” value in the data set on CD-1 mice [7] (4.5 mg/kg Q3D for 14 days, washout) was “persisted for at least five days after dosing”. In addition, the “dose with maximum effect on small intestine / colon weight” value in the data set with CD-1 mice [7] (Q3D over 14 days) is listed as 4.5 mg/kg. Besides, the “persistence of villi length during washout period” value in the data set with CD-1 mice [8] is “more persistence than does GLP-2 peptibody B264”. The “postprandial triglyceride concentration in the bloodstream” value in the data set with mice was “significantly higher”.
